Experiment [1] deals with T1, Serine/threonine-protein kinase DCLK1 (Homo sapiens) (UniProt O15075).
T1 sequence (whole entry): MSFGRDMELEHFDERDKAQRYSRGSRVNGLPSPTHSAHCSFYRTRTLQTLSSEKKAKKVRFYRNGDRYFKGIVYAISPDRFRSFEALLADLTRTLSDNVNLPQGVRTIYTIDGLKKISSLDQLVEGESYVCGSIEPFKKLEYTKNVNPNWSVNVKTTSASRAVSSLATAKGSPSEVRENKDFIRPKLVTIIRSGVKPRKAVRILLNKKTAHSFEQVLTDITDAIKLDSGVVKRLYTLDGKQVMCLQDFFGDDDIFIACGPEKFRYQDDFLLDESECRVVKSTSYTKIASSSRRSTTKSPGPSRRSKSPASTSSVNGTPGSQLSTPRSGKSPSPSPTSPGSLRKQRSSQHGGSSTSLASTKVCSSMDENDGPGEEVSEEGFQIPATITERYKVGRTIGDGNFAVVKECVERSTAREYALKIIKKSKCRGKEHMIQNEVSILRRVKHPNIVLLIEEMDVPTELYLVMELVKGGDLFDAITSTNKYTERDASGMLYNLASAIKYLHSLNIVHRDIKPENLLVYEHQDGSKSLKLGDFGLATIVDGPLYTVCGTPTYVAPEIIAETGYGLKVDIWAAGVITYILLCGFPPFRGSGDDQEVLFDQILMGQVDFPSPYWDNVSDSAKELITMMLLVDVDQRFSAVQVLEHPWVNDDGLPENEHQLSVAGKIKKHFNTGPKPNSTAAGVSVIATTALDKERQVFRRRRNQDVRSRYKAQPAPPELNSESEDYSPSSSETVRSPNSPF
The conditions noted are these: at 10 µM.

The target of experiment [2] is G protein-coupled receptor kinase 4 (Homo sapiens) (UniProt P32298). Briefly: Selectivity interaction (KinomeScan (DiscoverX)) EUB0000092b GRK4. Conditions: at 10 µM.
Sequence of G protein-coupled receptor kinase 4 (Homo sapiens) (P32298 whole entry, looked up): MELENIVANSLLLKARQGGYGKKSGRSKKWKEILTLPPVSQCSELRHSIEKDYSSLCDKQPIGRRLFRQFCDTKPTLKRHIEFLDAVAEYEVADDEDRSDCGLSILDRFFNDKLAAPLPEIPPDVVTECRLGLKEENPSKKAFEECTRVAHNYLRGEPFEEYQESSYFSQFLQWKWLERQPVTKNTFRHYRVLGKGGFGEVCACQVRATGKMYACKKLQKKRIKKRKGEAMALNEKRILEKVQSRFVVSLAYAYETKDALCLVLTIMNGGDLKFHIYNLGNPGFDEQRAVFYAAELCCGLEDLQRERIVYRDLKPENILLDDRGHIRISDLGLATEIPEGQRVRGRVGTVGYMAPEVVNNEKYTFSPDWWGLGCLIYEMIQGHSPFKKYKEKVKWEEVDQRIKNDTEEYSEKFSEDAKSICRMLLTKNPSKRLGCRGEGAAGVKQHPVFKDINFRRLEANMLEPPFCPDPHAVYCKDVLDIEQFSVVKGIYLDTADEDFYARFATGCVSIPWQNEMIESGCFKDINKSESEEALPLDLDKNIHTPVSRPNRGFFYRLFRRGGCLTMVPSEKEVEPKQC
Experiment [3] concerns the target Calcium/calmodulin-dependent protein kinase kinase 2 (Homo sapiens) (UniProt Q96RR4). The experiment is described as follows: Selectivity interaction (KinomeScan (DiscoverX)) EUB0001049a CAMKK2. The conditions noted are these: at 1 µM.
The target in experiment [4] is Gamma-aminobutyric acid type B receptor subunit 1 (Homo sapiens) (UniProt Q9UBS5). The experiment is described as follows: Selectivity interaction (Eurofins CEREP Diversity Profile (receptors and ion channels)) EUB0000279b GABBR1. Conditions: at 10 µM.
Sequence of Gamma-aminobutyric acid type B receptor subunit 1 (Homo sapiens) (Q9UBS5 whole entry): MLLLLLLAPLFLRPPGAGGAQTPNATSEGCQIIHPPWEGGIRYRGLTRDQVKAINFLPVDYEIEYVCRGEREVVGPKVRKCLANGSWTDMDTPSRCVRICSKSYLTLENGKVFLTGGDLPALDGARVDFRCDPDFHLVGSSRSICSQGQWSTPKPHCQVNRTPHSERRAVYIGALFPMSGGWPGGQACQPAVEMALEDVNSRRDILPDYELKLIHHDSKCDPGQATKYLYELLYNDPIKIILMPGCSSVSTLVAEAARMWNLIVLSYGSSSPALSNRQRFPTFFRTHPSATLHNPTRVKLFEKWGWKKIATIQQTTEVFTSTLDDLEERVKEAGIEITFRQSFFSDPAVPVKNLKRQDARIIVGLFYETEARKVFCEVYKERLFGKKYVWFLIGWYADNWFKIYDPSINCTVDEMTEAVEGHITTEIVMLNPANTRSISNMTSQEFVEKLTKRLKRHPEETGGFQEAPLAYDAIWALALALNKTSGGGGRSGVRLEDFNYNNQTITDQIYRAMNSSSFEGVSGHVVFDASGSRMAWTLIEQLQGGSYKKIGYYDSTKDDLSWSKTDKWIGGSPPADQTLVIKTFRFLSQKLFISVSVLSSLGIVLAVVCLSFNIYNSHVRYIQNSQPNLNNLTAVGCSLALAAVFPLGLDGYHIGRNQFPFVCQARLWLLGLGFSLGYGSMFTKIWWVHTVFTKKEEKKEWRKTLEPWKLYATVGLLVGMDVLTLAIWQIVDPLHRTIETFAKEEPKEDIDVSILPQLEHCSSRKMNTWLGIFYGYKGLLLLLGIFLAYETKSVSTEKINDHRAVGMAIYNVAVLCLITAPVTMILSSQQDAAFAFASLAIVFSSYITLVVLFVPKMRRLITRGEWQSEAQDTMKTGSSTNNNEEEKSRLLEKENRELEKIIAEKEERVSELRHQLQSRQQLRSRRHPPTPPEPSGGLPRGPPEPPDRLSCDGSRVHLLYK
Experiment [5] concerns the target Serine/threonine-protein kinase PAK 6 (Homo sapiens) (UniProt Q9NQU5). Briefly: Selectivity interaction (KinomeScan (DiscoverX)) EUB0000666a PAK6. The conditions noted are these: at 10 µM.
The target of experiment [6] is T2, Ephrin type-A receptor 3 (Homo sapiens) (UniProt P29320).
T2 sequence (whole entry): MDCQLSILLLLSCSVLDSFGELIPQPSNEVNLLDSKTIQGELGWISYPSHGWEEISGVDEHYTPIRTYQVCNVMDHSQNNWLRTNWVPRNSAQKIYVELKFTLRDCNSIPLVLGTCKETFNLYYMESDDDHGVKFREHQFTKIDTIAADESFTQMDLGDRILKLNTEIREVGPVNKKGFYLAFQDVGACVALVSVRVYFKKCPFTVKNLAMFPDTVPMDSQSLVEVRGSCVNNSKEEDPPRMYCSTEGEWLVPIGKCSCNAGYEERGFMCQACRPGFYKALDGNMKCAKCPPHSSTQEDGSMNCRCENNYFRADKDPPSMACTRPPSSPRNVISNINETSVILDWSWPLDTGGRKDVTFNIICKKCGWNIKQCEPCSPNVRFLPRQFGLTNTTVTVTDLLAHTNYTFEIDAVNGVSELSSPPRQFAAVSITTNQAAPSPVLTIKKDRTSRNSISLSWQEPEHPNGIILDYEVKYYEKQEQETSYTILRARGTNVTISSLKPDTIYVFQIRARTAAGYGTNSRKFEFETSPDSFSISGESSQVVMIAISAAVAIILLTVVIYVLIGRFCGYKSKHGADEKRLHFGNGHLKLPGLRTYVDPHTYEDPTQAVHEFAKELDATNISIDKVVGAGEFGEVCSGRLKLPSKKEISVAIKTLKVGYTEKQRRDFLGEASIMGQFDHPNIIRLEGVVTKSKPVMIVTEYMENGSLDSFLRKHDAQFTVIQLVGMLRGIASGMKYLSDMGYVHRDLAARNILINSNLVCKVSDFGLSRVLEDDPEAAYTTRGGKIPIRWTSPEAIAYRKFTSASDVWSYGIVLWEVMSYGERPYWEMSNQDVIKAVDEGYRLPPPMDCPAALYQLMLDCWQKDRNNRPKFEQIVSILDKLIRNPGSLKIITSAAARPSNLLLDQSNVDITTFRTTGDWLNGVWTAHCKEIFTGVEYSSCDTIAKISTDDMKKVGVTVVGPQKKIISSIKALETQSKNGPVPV
The experiment is described as follows: Selectivity interaction (SelectScreen profiling (Invitrogen)) EUB0000607a EPHA3. The conditions noted are these: at 2 µM.

Experiment [7] addresses Cyclin-dependent kinase 4/cyclin D1 (Homo sapiens) (UniProt P11802+P24385). Briefly: (§1) Selectivity interaction (KinomeScan (DiscoverX)) EUB0001619a CDK4. Type of experiment: protein-complex assay. Conditions: at 1 µM.
The target in experiment [8] is CDK4/Cyclin D3 (Homo sapiens) (UniProt P11802+P30281). Described as §1. Type of experiment: protein-complex assay. The conditions noted are these: at 1 µM.

The results in this text go back to ChEMBL document CHEMBL5465560, “Selectivity Literature for EUbOPEN Chemogenomic Library” (2024).

Sequence of Calcium/calmodulin-dependent protein kinase kinase 2 (Homo sapiens) (Q96RR4 2-588 limits assumed): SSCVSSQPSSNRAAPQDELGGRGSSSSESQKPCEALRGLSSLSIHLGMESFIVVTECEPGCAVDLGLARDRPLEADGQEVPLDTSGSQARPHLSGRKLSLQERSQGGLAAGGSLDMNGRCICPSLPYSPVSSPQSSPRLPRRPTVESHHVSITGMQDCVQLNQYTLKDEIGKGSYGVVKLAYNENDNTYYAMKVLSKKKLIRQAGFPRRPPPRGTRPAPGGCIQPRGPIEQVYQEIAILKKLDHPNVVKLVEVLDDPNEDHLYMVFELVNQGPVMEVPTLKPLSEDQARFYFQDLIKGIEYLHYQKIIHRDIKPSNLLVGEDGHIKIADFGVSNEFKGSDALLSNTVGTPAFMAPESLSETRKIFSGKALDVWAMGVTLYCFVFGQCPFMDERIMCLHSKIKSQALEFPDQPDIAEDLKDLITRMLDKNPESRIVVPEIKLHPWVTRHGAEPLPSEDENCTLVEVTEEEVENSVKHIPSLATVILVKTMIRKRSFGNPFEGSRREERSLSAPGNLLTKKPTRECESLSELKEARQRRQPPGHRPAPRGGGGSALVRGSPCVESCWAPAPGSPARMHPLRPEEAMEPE
Sequence of Serine/threonine-protein kinase PAK 6 (Homo sapiens) (Q9NQU5 whole entry, looked up): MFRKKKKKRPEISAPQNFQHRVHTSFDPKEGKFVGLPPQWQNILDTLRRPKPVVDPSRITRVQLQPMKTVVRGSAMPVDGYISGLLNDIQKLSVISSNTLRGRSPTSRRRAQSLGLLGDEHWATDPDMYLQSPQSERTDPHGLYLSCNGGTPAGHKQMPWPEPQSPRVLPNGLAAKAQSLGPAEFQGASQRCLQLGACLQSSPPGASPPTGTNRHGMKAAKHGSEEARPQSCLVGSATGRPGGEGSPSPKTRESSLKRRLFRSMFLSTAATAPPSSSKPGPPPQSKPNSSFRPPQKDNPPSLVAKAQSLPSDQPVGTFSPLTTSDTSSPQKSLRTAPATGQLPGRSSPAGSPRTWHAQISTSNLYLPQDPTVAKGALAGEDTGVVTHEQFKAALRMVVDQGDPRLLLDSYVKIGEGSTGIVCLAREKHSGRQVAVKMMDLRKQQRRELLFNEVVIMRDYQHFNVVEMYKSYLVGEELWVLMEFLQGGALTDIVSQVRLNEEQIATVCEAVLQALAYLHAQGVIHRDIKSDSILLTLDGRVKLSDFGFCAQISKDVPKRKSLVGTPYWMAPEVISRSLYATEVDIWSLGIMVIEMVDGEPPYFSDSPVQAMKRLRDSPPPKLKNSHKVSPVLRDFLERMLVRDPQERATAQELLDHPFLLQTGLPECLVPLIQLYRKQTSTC

Turning to `CCN(CC)CCCCNc1ncc2cc(-c3cc(OC)cc(OC)c3)c(NC(=O)NC(C)(C)C)nc2n1`, the % of control in experiment [1] was 100%.
In experiment [2], `CCC(=O)N1CCN(c2ccc(-n3c(=O)ccc4cnc5ccc(-c6cnc7ccccc7c6)cc5c43)cc2C(F)(F)F)CC1` displayed a % of control of 90%.
`COc1cc(Nc2nc(C)cc(-c3cnn4nc(OC)ccc34)n2)cc(C(F)(F)F)c1`: the % of control in experiment [3] was 100%.
On to `CC(=O)c1cc(-c2ccccc2OCC2CC2)c2ncccn12`, for which the % of control in experiment [4] was 100%.
As for `O=C(NOC[C@H](O)CO)c1ccc(F)c(F)c1Nc1ccc(I)cc1F`, the % of control in experiment [5] stood at 94%.
As to `CNC(=O)Nc1ccc(-c2nc(N3CC4CCC(C3)O4)c3cnn(C4CCC5(CC4)OCCO5)c3n2)cc1`, in experiment [6], the % of inhibition came to 4%.
`N#Cc1cccc(-c2c[nH]c3ncnc(N4CCOCC4)c23)c1`: the % of control amounted to 65% in experiment [7] and 100% in experiment [8].
